Like-named read-outs stand apart in the source and are kept apart here.
Tests used:
[1] = tested on: TNFα secretion from PMA/ionomycin stimulated white blood cells from human buffy coat; assay: TNFα secretion assay, PMA/ionomycin stimulation
Method: (§1) Various concentrations of each test compound were added at the time of stimulation. […] After the plate was washed with 0.1% Tween 20/PBS, an HRP-luminescent substrate was added to each well and light intensity measured using a LJL Analyst plate luminometer.

[2] = tested on: TNFα secretion from LPS stimulated white blood cells from human buffy coat; assay: TNFα secretion assay, LPS stimulation; settings: Homo sapiens, read-out: percent inhibition of TNFα secretion, LPS; for inhibition at 0.008 µM: Prednisolone 0.008 μM; for inhibition at 0.5 µM: Prednisolone 0.5 μM; for inhibition at 1 µM: Prednisolone 1 μM
Method: as §1

[3] = Amoxapine μM r5-r13: 0,0.25,0.5,1,2,4,8,16,32
[4] = Clomipramine μM r5-r13: 0,0.45,0.89,1.8,3.6,7.1,14,28,57
[5] = Desipramine μM r5-r13: 0,0.5,1,2,4,8,16,32,64
[6] = Fluoxetine μM r5-r13: 0,0.23,0.45,0.9,1.8,3.6,7.2,14,29
[7] = Loxapine μM r5-r13: 0,0.35,0.7,1.4,2.8,5.6,11,22,45
[8] = Norclozapine μM r5-r13: 0,0.21,0.41,0.83,1.7,3.3,6.6,13,27
[9] = Nortriptyline μM r5-r13: 0,0.52,1,2.1,4.2,8.3,17,33,67

C[C@]12C=CC(=O)C=C1CC[C@@H]1[C@@H]2[C@@H](O)C[C@@]2(C)[C@H]1CC[C@]2(O)C(=O)CO [Prednisolone, prednisolone]
inhibition at 0.01 µM ([1]; read-out: inhibition of TNFα secretion, Prednisolone 10 nM, Desipramine nM: 0, 50, 200, 799, 3197, 13000): -0.66% | inhibition at 0.01 µM ([1]; read-out: inhibition of TNFα secretion, Prednisolone 10 nM, Imipramine nM: 0, 99, 394, 1578, 6311, 25000): 0.037% | inhibition at 0.01 µM ([1]; read-out: inhibition of TNFα secretion, Prednisolone 10 nM, Nortriptyline nM: 0, 52, 208, 834, 3336, 13000): 4.27% | inhibition at 0.01 µM ([1]; read-out: inhibition of TNFα secretion, Prednisolone 10 nM, Protriptyline nM: 0, 52, 208, 834, 3336, 13000): 0.0342% | inhibition at […] ([1]; read-out: inhibition of TNFα secretion, Prednisolone 42 nM, Desipramine nM: 0, 50, 200, 799, 3197, 13000): 3.62% | inhibition at […] ([1]; read-out: inhibition of TNFα secretion, Prednisolone 42 nM, Imipramine nM: 0, 99, 394, 1578, 6311, 25000): 5.58% | inhibition at […] ([1]; read-out: inhibition of TNFα secretion, Prednisolone 42 nM, Nortriptyline nM: 0, 52, 208, 834, 3336, 13000): 7.41% | inhibition at 2.656 µM ([1]; read-out: inhibition of TNFα secretion, Prednisolone 2656 nM, Desipramine nM: 0, 50, 200, 799, 3197, 13000): 38.8% | inhibition at 2.656 µM ([1]; read-out: inhibition of TNFα secretion, Prednisolone 2656 nM, Imipramine nM: 0, 99, 394, 1578, 6311, 25000): 40.5% | inhibition at 2.656 µM ([1]; read-out: inhibition of TNFα secretion, Prednisolone 2656 nM, Nortriptyline nM: 0, 52, 208, 834, 3336, 13000): 38.3% | inhibition at 2.656 µM ([1]; read-out: inhibition of TNFα secretion, Prednisolone 2656 nM, Protriptyline nM: 0, 52, 208, 834, 3336, 13000): 45.2% | inhibition at 0.008 µM ([1]; read-out: percent inhibition of TNFα secretion, PMA/ionomycin, Prednisolone 0.008 μM, Amoxapine μM r5-r13: 0,0.25,0.5,1,2,4,8,16,32): -2.11% | inhibition at 0.008 µM ([1]; read-out: percent inhibition of TNFα secretion, PMA/ionomycin, Prednisolone 0.008 μM, Norclozapine μM r5-r13: 0,0.21,0.41,0.83,1.7,3.3,6.6,13,27): 17% | inhibition at 0.008 µM ([1]; read-out: percent inhibition of TNFα secretion, PMA/ionomycin, Prednisolone 0.008 μM, Nortriptyline μM r5-r13: 0,0.52,1,2.1,4.2,8.3,17,33,67): 9.54% | inhibition at 0.5 µM ([1]; read-out: percent inhibition of TNFα secretion, PMA/ionomycin, Prednisolone 0.5 μM, Amoxapine μM r5-r13: 0,0.25,0.5,1,2,4,8,16,32): 25% | inhibition at 0.5 µM ([1]; read-out: percent inhibition of TNFα secretion, PMA/ionomycin, Prednisolone 0.5 μM, Norclozapine μM r5-r13: 0,0.21,0.41,0.83,1.7,3.3,6.6,13,27): 44% | inhibition at 0.5 µM ([1]; read-out: percent inhibition of TNFα secretion, PMA/ionomycin, Prednisolone 0.5 μM, Nortriptyline μM r5-r13: 0,0.52,1,2.1,4.2,8.3,17,33,67): 29.2% | inhibition at 1 µM ([1]; read-out: percent inhibition of TNFα secretion, PMA/ionomycin, Prednisolone 1 μM, Amoxapine μM r5-r13: 0,0.25,0.5,1,2,4,8,16,32): 29.5% | inhibition at 1 µM ([1]; read-out: percent inhibition of TNFα secretion, PMA/ionomycin, Prednisolone 1 μM, Nortriptyline μM r5-r13: 0,0.52,1,2.1,4.2,8.3,17,33,67): 38.5% | inhibition at 0.008 µM ([1]; read-out: percent inhibition of TNFα secretion, Prednisolone 0.008 μM, Clomipramine μM 0, 0.45, 0.89, 1.8, 3.6, 7.1, 14, 28, 57): 7.57% | inhibition at 0.008 µM ([1]; read-out: percent inhibition of TNFα secretion, Prednisolone 0.008 μM, Desipramine μM 0, 0.5, 1, 2, 4, 8, 16, 32, 64): 3.11% | inhibition at 0.008 µM ([1]; read-out: percent inhibition of TNFα secretion, Prednisolone 0.008 μM, Fluoxetine μM by grid row: r5 0, r6 0.23, r7 0.45, r8 0.9, r9 1.8, r10 3.6, r11 7.2, r12 14, r13 29): 6.63% | inhibition at 0.008 µM ([1]; read-out: percent inhibition of TNFα secretion, Prednisolone 0.008 μM, Loxapine μM 0, 0.35, 0.7, 1.4, 2.8, 5.6, 11, 22, 45): 3.36% | inhibition at 0.01 µM ([1]; read-out: percent inhibition of TNFα secretion, Prednisolone 10 nM, Amitriptyline nM: 0, 50, 199, 796, 3186, 13000): -1.26% | inhibition at 0.01 µM ([1]; read-out: percent inhibition of TNFα secretion, Prednisolone 10 nM, Amoxapine nM: 0, 12, 50, 199, 797, 3187): 1.28% | inhibition at 0.01 µM ([1]; read-out: percent inhibition of TNFα secretion, Prednisolone 10 nM, Clomipramine nM: 0, 45, 178, 712, 2848, 11000): 0.29% | inhibition at […] ([1]; read-out: percent inhibition of TNFα secretion, Prednisolone 42 nM, Amitriptyline nM: 0, 50, 199, 796, 3186, 13000): 7.27% | inhibition at […] ([1]; read-out: percent inhibition of TNFα secretion, Prednisolone 42 nM, Amoxapine nM: 0, 12, 50, 199, 797, 3187): 7.71% | inhibition at […] ([1]; read-out: percent inhibition of TNFα secretion, Prednisolone 42 nM, Clomipramine nM: 0, 45, 178, 712, 2848, 11000): 6.83% | inhibition at 0.5 µM ([1]; read-out: percent inhibition of TNFα secretion, Prednisolone 0.5 μM, Clomipramine μM 0, 0.45, 0.89, 1.8, 3.6, 7.1, 14, 28, 57): 33.4% | inhibition at 0.5 µM ([1]; read-out: percent inhibition of TNFα secretion, Prednisolone 0.5 μM, Desipramine μM 0, 0.5, 1, 2, 4, 8, 16, 32, 64): 32.6% | inhibition at 0.5 µM ([1]; read-out: percent inhibition of TNFα secretion, Prednisolone 0.5 μM, Fluoxetine μM by grid row: r5 0, r6 0.23, r7 0.45, r8 0.9, r9 1.8, r10 3.6, r11 7.2, r12 14, r13 29): 39.3% | inhibition at 0.5 µM ([1]; read-out: percent inhibition of TNFα secretion, Prednisolone 0.5 μM, Loxapine μM 0, 0.35, 0.7, 1.4, 2.8, 5.6, 11, 22, 45): 31% | inhibition at 1 µM ([1]; read-out: percent inhibition of TNFα secretion, Prednisolone 1 μM, Clomipramine μM 0, 0.45, 0.89, 1.8, 3.6, 7.1, 14, 28, 57): 37.5% | inhibition at 1 µM ([1]; read-out: percent inhibition of TNFα secretion, Prednisolone 1 μM, Desipramine μM 0, 0.5, 1, 2, 4, 8, 16, 32, 64): 35.2% | inhibition at 1 µM ([1]; read-out: percent inhibition of TNFα secretion, Prednisolone 1 μM, Fluoxetine μM by grid row: r5 0, r6 0.23, r7 0.45, r8 0.9, r9 1.8, r10 3.6, r11 7.2, r12 14, r13 29): 30.6% | inhibition at 1 µM ([1]; read-out: percent inhibition of TNFα secretion, Prednisolone 1 μM, Loxapine μM 0, 0.35, 0.7, 1.4, 2.8, 5.6, 11, 22, 45): 34.8% | inhibition at 2.656 µM ([1]; read-out: percent inhibition of TNFα secretion, Prednisolone 2656 nM, Amitriptyline nM: 0, 50, 199, 796, 3186, 13000): 41.6% | inhibition at 2.656 µM ([1]; read-out: percent inhibition of TNFα secretion, Prednisolone 2656 nM, Amoxapine nM: 0, 12, 50, 199, 797, 3187): 39% | inhibition at 2.656 µM ([1]; read-out: percent inhibition of TNFα secretion, Prednisolone 2656 nM, Clomipramine nM: 0, 45, 178, 712, 2848, 11000): 42.1% | inhibition at 0.008 µM [2, 3]: 3.67% | inhibition at 0.008 µM [2, 4]: 2.55% | inhibition at 0.008 µM [2, 5]: 4.87% | inhibition at 0.008 µM [2, 6]: 1.18% | inhibition at 0.008 µM [2, 7]: 4.44% | inhibition at 0.008 µM [2, 8]: 18% | inhibition at 0.008 µM [2, 9]: 0.348% | inhibition at 0.5 µM [2, 3]: 59.1% | inhibition at 0.5 µM [2, 4]: 64.8% | inhibition at 0.5 µM [2, 5]: 57.6% | inhibition at 0.5 µM [2, 6]: 63.9% | inhibition at 0.5 µM [2, 7]: 68.8% | inhibition at 0.5 µM [2, 8]: 79% | inhibition at 0.5 µM [2, 9]: 51.9% | inhibition at 1 µM [2, 3]: 66.2% | inhibition at 1 µM [2, 4]: 66.9% | inhibition at 1 µM [2, 5]: 59.1% | inhibition at 1 µM [2, 6]: 71% | inhibition at 1 µM [2, 7]: 68.7% | inhibition at 1 µM [2, 8]: 83% | inhibition at 1 µM [2, 9]: 53.4%

From patent US20090075951A1, “Methods and Reagents for the Treatment of Inflammatory Disorders” (CombinatoRx, Inc., priority 2003, published 2009)
